# In patent US9051591B2, “Bacterium of enterobacteriaceae family producing L-aspartic acid or L-aspartic acid-derived metabolites and a method for producing L-aspartic acid or L-aspartic acid-derived metabolites” (AJINOMOTO CO., INC., priority 2010, dated 2015):
# Values joined by “and” are separate entries in the source; they are usually repeats but may differ in a detail not shown here. Equal entries are not always repeated. Where two headings read alike, the source gives them in different places.
# T1: purified ADH (Polaromonas sp.) (Polaromonas sp., UniProt Q126F5)
# T1 sequence (Q126F5 1-267): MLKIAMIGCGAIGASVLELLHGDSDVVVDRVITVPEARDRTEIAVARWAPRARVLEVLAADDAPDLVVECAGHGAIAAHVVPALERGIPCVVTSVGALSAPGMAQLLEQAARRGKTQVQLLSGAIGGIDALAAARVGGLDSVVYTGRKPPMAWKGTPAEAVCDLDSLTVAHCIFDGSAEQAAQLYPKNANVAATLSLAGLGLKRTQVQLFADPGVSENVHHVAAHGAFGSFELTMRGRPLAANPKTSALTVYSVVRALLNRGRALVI
# T2: ADH (Polaromonas sp.) (Polaromonas sp., UniProt Q126F5)
# T2 sequence (Q126F5 1-267): T1 sequence (Q126F5 1-267)
# T3: Polaromonas sp. aspartate dehydrogenase (Polaromonas sp., UniProt Q126F5)
# T3 sequence (Q126F5 1-267): T1 sequence (Q126F5 1-267)
# T4: Polaromonas sp. ADH (Polaromonas sp., UniProt Q126F5)
# T4 sequence (Q126F5 1-267): T1 sequence (Q126F5 1-267)
# T5: Ralstonia eutropha ADH-Re (Cupriavidus necator, UniProt Q0K391)
# T5 sequence (Q0K391 with tags, fused parts or gaps): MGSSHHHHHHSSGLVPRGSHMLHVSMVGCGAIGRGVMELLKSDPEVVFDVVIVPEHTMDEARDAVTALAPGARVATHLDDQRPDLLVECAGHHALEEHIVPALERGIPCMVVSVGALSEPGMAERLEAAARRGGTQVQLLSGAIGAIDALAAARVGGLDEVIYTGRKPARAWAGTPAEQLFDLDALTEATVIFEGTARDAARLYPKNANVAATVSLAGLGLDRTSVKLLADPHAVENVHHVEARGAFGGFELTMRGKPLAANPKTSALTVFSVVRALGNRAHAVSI
# B1: Bradyrhizobium japonicum ADH-Bj (Bradyrhizobium diazoefficiens USDA 110) (protein)
# chain: MGSSHHHHHHSSGDRRWKVMTDQTASSELRVAIAGLGSIGTKIAAALDQGEGLTLSAVAVRDPAKHQAFLNGLRRPPQVLPIDQLGEAADIVVECAPSSQLRAIVEPAVKRGKAAVVVSVGGLLDNFDLVDLARANGGRIIVPTGALIGLDAVNAAVIGTIHSVKMVTRKPIDGLKGAPFIVHNNIDIDTLREPLKLFEGTAREAAKGFPANLNVAVALSLAGVGPDRTSVQIWADPTVTRNVHRIEVEADSARFSMSIENIPSENPKTGLITALSVIALLRKQRATLCVGT
# B2: Polaromonas sp. ADH (Polaromonas sp. JS666) (protein)
# chain: T1 sequence (Q126F5 1-267)
# B3: Rhodopseudomonas palustris ADH1-Rp (Rhodopseudomonas palustris HaA2) (protein)
# chain: MRSGRAPQRVAIAGLGAIGKAIARELDRGLDGLTLGAVASGDPEKHRAFLDGLRTTPPVVPLDQLHAHADLVIEAAPSRLLRAIVEPFVSRGRTAIVLSAAALLQNEDLIDLANLNGGQIIVPTGALIGLDAVTAAAVGTIHSVRMITRKPVDGLRGAPFIVDNGIDLDGLREPLKLFEGTAREAGKGFPANLNVAVALSLAGIGPDRTMVEIWADPGVTRNTHRIEVDADSARFAMTIENVPSDNPRTGLITPLSVIALLRKQSAALRVGT
# B4: Ralstonia eutropha ADH-Re (Cupriavidus necator H16) (protein)
# chain: T5 sequence (Q0K391 with tags, fused parts or gaps)
# Experiments:
# ADH-Re = test: Screening of substrate specificity, ADH-Re; settings: 20 mM substrate; for Deamination activity, ADH-Re: relative to aspartate, 2 mM NAD^+, pH 9.8; for Amination activity, ADH-Re: relative to oxaloacetate, […] NADH, pH 9
# [1] = molecular target: T1, purified ADH (Polaromonas sp.); test: Screening of alternative substrates for purified ADH; settings: 10 mM, 29° C.; for ability to replace aspartic acid in reverse reaction: 1 mM NAD^+; for ability to replace oxaloacetate in forward reaction: […] NADH, 50 mM NH4Cl
# ADH-Bj = test: Screening of substrate specificity, ADH-Bj; settings: relative to aspartate; 20 mM substrate, 2 mM NADP^+, pH 9.8
# ADH (Polaromonas sp.) = molecular target: T2, ADH (Polaromonas sp.); test: Screening of substrate specificity, ADH; settings: 20 mM substrate; for Deamination activity, ADH: relative to aspartate, 2 mM NAD^+, pH 9.8; for Amination activity, ADH: relative to oxaloacetate, […] NADH, pH 9
# ADH1-Rp = test: Screening of substrate specificity, ADH1-Rp; settings: relative to aspartate; 20 mM substrate, 2 mM NADP^+, pH 9.8
# [2] = molecular target: Bradyrhizobium japonicum ADH-Bj (Bradyrhizobium diazoefficiens, UniProt Q89FY1); test: Kinetic parameters of the Bradyrhizobium japonicum ADH-Bj
# [3] = molecular target: Rhodopseudomonas palustris ADH1-Rp (Rhodopseudomonas palustris, UniProt Q2J3V1); test: Kinetic parameters of the Rhodopseudomonas palustris AspDH 1
# [4] = molecular target: T3, Polaromonas sp. aspartate dehydrogenase; test: Regulatory properties of the ADH; settings: for effect on ADH activity in forward and reverse reactions: 29° C., pH 9.8
# Polaromonas sp. ADH = molecular target: T4, Polaromonas sp. ADH; settings: Michaelis-Menten plots
# [5] = molecular target: T5, Ralstonia eutropha ADH-Re
# [6] = substrate: NC(=O)c1ccc[n+]([C@@H]2O[C@H](COP(=O)([O-])OP(=O)(O)OC[C@H]3O[C@@H](n4cnc5c(N)ncnc54)[C@H](O)[C@@H]3O)[C@@H](O)[C@H]2O)c1; test: purified protein, by the assay type
# [7] = substrate: O=C(O)CC(=O)C(=O)O; test: purified protein, by the assay type; settings: other: Oxaloacetate reductive amination; Michaelis-Menten plots
# [8] = substrate: N[C@@H](CC(=O)O)C(=O)O; test: purified protein, by the assay type; settings: other: Aspartate oxidative deamination; Michaelis-Menten plots
# [9] = Aspartate oxidative deamination
# [10] = Aspartic acid oxidative deamination
# [11] = Oxaloacetate reductive amination
# [12] = Oxaloacetate reductive amination, Michaelis-Menten plots
# [13] = other: Aspartate oxidative deamination
# [14] = other: Aspartic acid oxidative deamination, Michaelis-Menten plots
# [15] = other: Aspartic acid oxidative deamination
# [16] = other: Aspartate oxidative deamination, Michaelis-Menten plots
molecule,measurement,setting,value
C[C@H](N)C(=O)O [Alanine],"Deamination activity, ADH-Re",ADH-Re,na (no activity (<2%))
same,ability to replace aspartic acid in reverse reaction,[1],No activity
same,"Deamination activity, ADH-Bj",ADH-Bj,na (no activity (<2%))
same,"Deamination activity, ADH",ADH (Polaromonas sp.),na (no activity (<2%))
same,"Deamination activity, ADH1-Rp",ADH1-Rp,na (no activity (<2%))
N[C@@H](CC(=O)O)C(=O)O [Aspartic acid],"Deamination activity, ADH-Re",ADH-Re,100%
same,"Deamination activity, ADH-Bj",ADH-Bj,100 ± 11%
same,Km,[2]; [9],27 ± 4 mM
same,Vmax,[2]; [9],14.3 ± 0.9 µmol/min/mg
same,kcat,[2]; [9],7.33 ± 0.5 s⁻¹
same,"Deamination activity, ADH",ADH (Polaromonas sp.),100%
same,Km,[3]; [10],13.4 ± 0.5 mM
same,Vmax,[3]; [10],5.61 ± 0.08 µmol/min/mg
same,kcat,[3]; [10],2.87 ± 0.033 s⁻¹
same,decrease of enzyme activity in forward reaction,[4]; addition of 100 mM,3 times
same,Km,Polaromonas sp. ADH; [10],1.3 ± 0.2 mM
same,Vmax,Polaromonas sp. ADH; [10],26.2 ± 0.9 µmol/min/mg
same,kcat,Polaromonas sp. ADH; [10],12 ± 0.333 s⁻¹
same,"Deamination activity, ADH1-Rp",ADH1-Rp,100 ± 8%
N[C@@H](CCC(=O)O)C(=O)O [Glutamate],"Deamination activity, ADH-Re",ADH-Re,na (no activity (<2%))
same,ability to replace aspartic acid in reverse reaction,[1],No activity
same,"Deamination activity, ADH-Bj",ADH-Bj,5.5 ± 1.1%
same,"Deamination activity, ADH",ADH (Polaromonas sp.),na (no activity (<2%))
same,effect on ADH activity in forward and reverse reactions,[4]; addition of 1 mM,not significantly affected
same,"Deamination activity, ADH1-Rp",ADH1-Rp,4.5 ± 0.4%
Cl.N [NH4Cl],Km,[2]; [11],4.3 mM and 4 mM
same,Vmax,[2]; [11],48 ± 2 µmol/min/mg
same,kcat,[2]; [11],24.67 ± 0.833 s⁻¹
same,Km,[3]; [11],11 mM and 11.3 mM
same,Vmax,[3]; [11],20.2 ± 0.6 µmol/min/mg
same,kcat,[3]; [11],10.3 ± 0.333 s⁻¹
same,inhibition of the reverse reaction of aspartic acid deamination,[4]; addition of 1 mM,did not significantly inhibit
same,Km,Polaromonas sp. ADH; [11],33 mM
same,Vmax,Polaromonas sp. ADH; [11],83 ± 3 µmol/min/mg
same,kcat,Polaromonas sp. ADH; [11],38 ± 1.33 s⁻¹
same,Km,[5]; [12],12 mM and 11.9 mM
same,Vmax,[5]; [12],113 ± 4 µmol/min/mg
same,kcat,[5]; [12],56.67 ± 2 s⁻¹
O=C(O)CC(=O)C(=O)O [Oxaloacetate],"Amination activity, ADH",ADH (Polaromonas sp.),100 ± 3%
CC(=O)SCCNC(=O)CCNC(=O)[C@H](O)C(C)(C)COP(=O)(O)OP(=O)(O)OC[C@H]1O[C@@H](n2cnc3c(N)ncnc32)[C@H](O)[C@@H]1OP(=O)(O)O [acetyl-coenzyme A],effect on ADH activity in forward and reverse reactions,[4]; addition of 1 mM,not significantly affected
NC(=O)C[C@H](N)C(=O)O [asparagine],ability to replace aspartic acid in reverse reaction,[1],No activity
CC(C)(COP(=O)(O)OP(=O)(O)OC[C@H]1O[C@@H](n2cnc3c(N)ncnc32)[C@H](O)[C@@H]1OP(=O)(O)O)[C@@H](O)C(=O)NCCC(=O)NCCS [coenzyme A],effect on ADH activity in forward and reverse reactions,[4]; addition of 1 mM,not significantly affected
CC[C@H](C)[C@H](N)C(=O)O [isoleucine],ability to replace aspartic acid in reverse reaction,[1],No activity
CC(C)C(=O)C(=O)O [ketoisovaleriate],"Amination activity, ADH-Re",ADH-Re,na (no activity (<0.2%))
same,ability to replace oxaloacetate in forward reaction,[1],No activity
same,"Amination activity, ADH",ADH (Polaromonas sp.),na (no activity (<0.2%))
CCC(C)C(=O)C(=O)O (stereo not shown) [ketomethylvaleriate],"Amination activity, ADH-Re",ADH-Re,na (no activity (<0.2%))
same,ability to replace oxaloacetate in forward reaction,[1],No activity
same,"Amination activity, ADH",ADH (Polaromonas sp.),na (no activity (<0.2%))
O=C(O)CC(O)C(=O)O (stereo not shown) [malate],effect on ADH activity in forward and reverse reactions,[4]; addition of 1 mM,not significantly affected
CC(=O)C(=O)O [pyruvate],ability to replace oxaloacetate in forward reaction,[1],No activity
same,"Amination activity, ADH",ADH (Polaromonas sp.),na (no activity (<0.2%))
CC(C)[C@H](N)C(=O)O [valine],ability to replace aspartic acid in reverse reaction,[1],No activity
CCC(N)C(=O)O (stereo not drawn) [α-aminobutyrate],ability to replace aspartic acid in reverse reaction,[1],No activity
CCC(=O)C(=O)O [α-ketobutyrate],"Amination activity, ADH-Re",ADH-Re,na (no activity (<0.2%))
same,ability to replace oxaloacetate in forward reaction,[1],No activity
same,"Amination activity, ADH",ADH (Polaromonas sp.),na (no activity (<0.2%))
O=C(O)CCC(=O)C(=O)O [α-ketoglutarate],"Amination activity, ADH-Re",ADH-Re,na (no activity (<0.2%))
NADPH,Km,"[5]; amination, summary range over Hill and Michaelis-Menten fits",0.39 to 0.9 mM
B1,Km,[6]; [13],10 ± 3 mM
same,Vmax,[6]; [13],6.5 µmol/min/mg
same,kcat,[6]; [13],3.33 ± 0.5 s⁻¹
same,kcat/Km,[6]; [13],333 M⁻¹ s⁻¹
B2,Km,[7],2.2 ± 0.3 mM
same,Vmax,[7],74 µmol/min/mg
same,kcat,[7],33.8 ± 1.5 s⁻¹
same,Km,[6]; [14],0.424 ± 0.010 mM
same,Vmax,[6]; [14],32 µmol/min/mg
same,kcat,[6]; [14],14.68 ± 0.1 s⁻¹
B3,Km,[6]; [15],7.0 ± 0.3 mM
same,Vmax,[6]; [15],3.11 µmol/min/mg
same,kcat,[6]; [15],1.58 ± 0.0333 s⁻¹
same,kcat/Km,[6]; [15],227 ± 15 M⁻¹ s⁻¹
B4,Km,[8],13 ± 3 mM
same,Vmax,[8],23 µmol/min/mg
same,kcat,[8],11.5 ± 1 s⁻¹
same,kcat/Km,[8],833 M⁻¹ s⁻¹
same,Km,[7],3.3 ± 0.4 mM
same,kcat,[7],58.3 ± 2.33 s⁻¹
same,Km,[6]; [16],1.7 ± 0.4 mM
same,Vmax,[6]; [16],37 µmol/min/mg
same,kcat,[6]; [16],18.7 ± 1.5 s⁻¹
